Test results taken from ChEMBL document CHEMBL1131739, “Synthesis of 25-aminosterols, new antifungal agents” (1999).
≈ marks a conversion by molar mass, not a printed value.

Tested on: Candida albicans
Assay: In vitro antifungal activity against candida albicans (IP 1180.79)
Format: functional

SMILES	MIC [µM]
C[C@H](CCCC(C)(C)N)C1CCC2C3CC=C4C[C@@H](O)CC[C@]4(C)C3CC[C@@]21C (some centres not stated)	4 (≈ 1.61 µg/mL)
C[C@H](CCCC(C)(C)N)C1CC[C@@]2(C)C3=C(CC[C@]12C)[C@@]1(C)CC[C@H](O)C(C)(C)C1CC3 (some centres not stated)	60 (≈ 26.6 µg/mL)
